One may read the logP as a log measure of how a compound divides between an organic and an aqueous phase. High values mean a more lipophilic compound, low ones a more hydrophilic compound.

Take `O=C(Nc1ccc2nn(C3CCCCC3)nc2c1)C(Cl)Cl`: the logP stood at 3.87.

For `Cn1nc2ccc(NC(=O)CCl)cc2n1`, the logP amounted to 1.22.

`O=C(Nc1ccc2nn(C3CCCCC3)nc2c1)c1ccc([N+](=O)[O-])cc1` registered a logP of 4.57.

The molecule `Cn1nc2ccc(NC(=O)c3ccc([N+](=O)[O-])cc3)cc2n1` came in with a logP of 2.53.

In the case of `COc1cc(C(=O)Nc2ccc3nn(C4CCCCC4)nc3c2)cc(OC)c1OC`, the logP was 4.45.

In turn, `Cn1nc2ccc(NC(=O)c3ccc(Cl)cc3)cc2n1` came in with a logP of 3.13.

In turn, `COc1ccc(C(=O)Nc2ccc3nn(C4CCCC4)nc3c2)cc1` registered a log partition coefficient (logP) of 4.03.

For `O=C(Nc1ccc2nn(C3CCCCC3)nc2c1)c1ccccc1`, the logP is 4.45.

Molecule `Cn1nc2ccc(NC(=O)c3ccccc3)cc2n1` displayed a logP of 2.44.

For `O=C(Nc1ccc2nn(C3CCCCC3)nc2c1)c1ccc(Cl)c(Cl)c1`, the logP came to 5.85.

On to `COc1cc(C(=O)Nc2ccc3nn(C)nc3c2)cc(OC)c1OC`, for which the logP was 2.38.

The values are drawn from the OPERA property sets (Mansouri et al. 2018).
